Test results as given in ChEMBL document CHEMBL3217416, “[4-(6,7-Disubstituted quinazolin-4-ylamino)phenyl] carbamic acid esters: a novel series of dual EGFR/VEGFR-2 tyrosine kinase inhibitors” (Medchemcomm, 2011).
Each block holds one compound with its values, some of them ahead of it.

How the values were obtained:
PC-3 [1] = assay: Antiproliferative activity against human PC3 cells by MTS assay; assay type: functional
MCF7 [2] = assay: Antiproliferative activity against human MCF7 cells by MTS assay; assay type: functional
[3] = Antiproliferative activity against human EAhy926 cells by MTS assay; assay type: functional, cell-based; conditions: EA.hy 926
PC-3 [4] = assay: Antiproliferative activity against human PC3 cells at 10 uM by MTS assay; assay type: functional, cell-based
HT-29 [5] = assay: Antiproliferative activity against human HT-29 cells at 10 uM by MTS assay; assay type: functional, cell-based
MCF7 [6] = assay: Antiproliferative activity against human MCF7 cells […] by MTS assay; assay type: functional, cell-based
[7] = target: Epidermal growth factor receptor (Homo sapiens, UniProt P00533); assay: Inhibition of EGFR (unknown origin)
[8] = target: Vascular endothelial growth factor receptor 2 (Homo sapiens, UniProt P35968); assay: Inhibition of VEGFR2 (unknown origin)
HT-29 [9] = assay: Antiproliferative activity against human HT-29 cells by MTS assay; assay type: functional

Sequence of Epidermal growth factor receptor (P00533 whole entry): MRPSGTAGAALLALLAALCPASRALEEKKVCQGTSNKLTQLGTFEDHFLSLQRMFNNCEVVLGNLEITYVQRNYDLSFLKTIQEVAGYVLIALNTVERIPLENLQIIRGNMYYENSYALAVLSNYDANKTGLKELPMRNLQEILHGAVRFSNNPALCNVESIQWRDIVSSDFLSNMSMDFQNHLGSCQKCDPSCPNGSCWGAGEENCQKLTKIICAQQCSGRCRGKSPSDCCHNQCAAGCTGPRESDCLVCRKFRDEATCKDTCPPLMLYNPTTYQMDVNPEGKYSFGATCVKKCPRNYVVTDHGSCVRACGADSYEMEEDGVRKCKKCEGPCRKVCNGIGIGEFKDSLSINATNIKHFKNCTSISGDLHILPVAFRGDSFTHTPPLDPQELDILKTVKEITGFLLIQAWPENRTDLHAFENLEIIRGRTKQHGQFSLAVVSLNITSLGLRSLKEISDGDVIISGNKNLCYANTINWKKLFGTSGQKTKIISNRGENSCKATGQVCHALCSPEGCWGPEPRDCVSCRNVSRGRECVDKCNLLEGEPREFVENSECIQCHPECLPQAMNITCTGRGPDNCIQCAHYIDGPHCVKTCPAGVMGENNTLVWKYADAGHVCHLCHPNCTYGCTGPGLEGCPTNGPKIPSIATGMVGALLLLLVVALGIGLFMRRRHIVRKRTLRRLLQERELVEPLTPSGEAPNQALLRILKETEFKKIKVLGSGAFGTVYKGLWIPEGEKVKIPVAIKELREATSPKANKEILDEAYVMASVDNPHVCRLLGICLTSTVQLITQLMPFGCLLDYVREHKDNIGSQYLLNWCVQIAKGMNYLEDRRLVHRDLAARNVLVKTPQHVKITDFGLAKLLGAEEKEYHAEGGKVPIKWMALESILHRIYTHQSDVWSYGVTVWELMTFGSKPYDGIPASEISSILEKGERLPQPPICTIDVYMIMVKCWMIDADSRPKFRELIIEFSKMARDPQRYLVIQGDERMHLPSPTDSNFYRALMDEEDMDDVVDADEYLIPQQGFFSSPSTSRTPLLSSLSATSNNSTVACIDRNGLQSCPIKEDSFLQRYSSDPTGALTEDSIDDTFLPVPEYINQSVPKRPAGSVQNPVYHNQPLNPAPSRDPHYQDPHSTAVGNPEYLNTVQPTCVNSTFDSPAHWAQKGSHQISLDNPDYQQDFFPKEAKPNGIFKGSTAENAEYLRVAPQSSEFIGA
Sequence of Vascular endothelial growth factor receptor 2 (P35968 whole entry): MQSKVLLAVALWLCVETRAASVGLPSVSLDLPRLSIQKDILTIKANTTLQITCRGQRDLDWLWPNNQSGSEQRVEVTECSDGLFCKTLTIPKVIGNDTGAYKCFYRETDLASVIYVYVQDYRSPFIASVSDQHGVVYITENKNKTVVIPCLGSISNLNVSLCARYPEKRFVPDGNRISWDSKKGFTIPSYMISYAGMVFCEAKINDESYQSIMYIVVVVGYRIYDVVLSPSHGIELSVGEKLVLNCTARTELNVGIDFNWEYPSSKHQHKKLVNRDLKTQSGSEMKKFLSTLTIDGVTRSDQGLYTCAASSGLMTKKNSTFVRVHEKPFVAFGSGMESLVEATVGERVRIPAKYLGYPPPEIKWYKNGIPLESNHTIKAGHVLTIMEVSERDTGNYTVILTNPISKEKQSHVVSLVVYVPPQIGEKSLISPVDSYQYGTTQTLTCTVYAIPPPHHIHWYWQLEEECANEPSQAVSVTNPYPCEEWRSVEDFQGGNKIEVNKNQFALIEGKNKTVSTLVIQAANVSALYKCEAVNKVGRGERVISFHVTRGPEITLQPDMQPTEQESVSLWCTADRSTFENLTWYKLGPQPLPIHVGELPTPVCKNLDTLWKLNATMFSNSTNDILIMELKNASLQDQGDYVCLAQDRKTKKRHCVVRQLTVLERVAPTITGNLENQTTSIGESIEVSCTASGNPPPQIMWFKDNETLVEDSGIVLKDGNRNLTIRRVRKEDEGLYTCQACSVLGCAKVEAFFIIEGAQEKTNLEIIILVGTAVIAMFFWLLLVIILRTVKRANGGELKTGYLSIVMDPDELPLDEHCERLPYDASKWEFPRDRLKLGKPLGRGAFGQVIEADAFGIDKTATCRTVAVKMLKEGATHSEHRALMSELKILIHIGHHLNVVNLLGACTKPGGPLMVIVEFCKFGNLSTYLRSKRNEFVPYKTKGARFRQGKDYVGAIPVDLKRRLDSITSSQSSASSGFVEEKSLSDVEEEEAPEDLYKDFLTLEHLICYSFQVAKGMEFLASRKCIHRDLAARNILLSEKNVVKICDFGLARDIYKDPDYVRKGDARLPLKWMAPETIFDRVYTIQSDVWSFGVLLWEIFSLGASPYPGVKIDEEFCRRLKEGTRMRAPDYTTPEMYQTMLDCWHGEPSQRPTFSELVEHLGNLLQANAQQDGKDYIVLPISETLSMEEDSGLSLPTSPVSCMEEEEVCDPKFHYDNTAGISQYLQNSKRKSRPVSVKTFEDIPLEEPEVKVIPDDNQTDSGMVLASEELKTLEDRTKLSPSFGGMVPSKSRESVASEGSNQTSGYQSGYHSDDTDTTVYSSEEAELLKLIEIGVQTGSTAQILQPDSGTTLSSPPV

IC50 [7]: 0.9 µM
SMILES: CCOC(=O)Nc1cc(Nc2ncnc3cc(OC)c(OC)cc23)ccc1Cl

IC50 [7]: 4 µM
SMILES: COC(=O)Nc1ccc(Nc2ncnc3cc(OC)c(OC)cc23)cc1C

IC50 [7]: > 10 µM
SMILES: CCOC(=O)Nc1cc(Cl)c(Nc2ncnc3cc(OC)c(OC)cc23)cc1Cl.Cl
inhibition (INH) (PC-3 [1]): 0%
inhibition (INH) (HT-29 [9]): 5%
inhibition (INH) (MCF7 [2]): 6%

IC50 [7]: 5.5 µM
SMILES: CCCOc1cc2ncnc(Nc3ccc(NC(=O)OCC)c(Cl)c3)c2cc1OC

IC50 [7]: 1 µM
SMILES: CCOC(=O)Nc1ccc(Nc2ncnc3cc(OC)c(OC)cc23)cc1Cl

IC50 (PC-3 [4]): > 10 µM
IC50 (MCF7 [6]): > 10 µM
IC50 [7]: > 10 µM
IC50 [8]: 3.3 µM
SMILES: CCOC(=O)Nc1ccc(Nc2ncnc3cc(OCCN(CC)CC)c(OC)cc23)cc1Cl
IC50 [3]: 6.2 µM

IC50 [7]: 6.4 µM
SMILES: CCCCOC(=O)Nc1ccc(Nc2ncnc3cc(OC)c(OC)cc23)cc1Cl

IC50 [7]: 1 µM
SMILES: CCCOC(=O)Nc1ccc(Nc2ncnc3cc(OC)c(OC)cc23)cc1Cl

IC50 [7]: > 10 µM
SMILES: COC(=O)Nc1cc(Nc2ncnc3cc(OC)c(OC)cc23)ccc1Cl.Cl
inhibition (INH) (PC-3 [1]): 3%
inhibition (INH) (HT-29 [9]): 0%
inhibition (INH) (MCF7 [2]): 0%

IC50 [7]: 5 µM
SMILES: CCOC(=O)Nc1cc(Nc2ncnc3cc(OC)c(OC)cc23)ccc1C

IC50 [7]: 0.9 µM
SMILES: CCOC(=O)Nc1ccc(Nc2ncnc3cc(OC)c(OC)cc23)cc1C

IC50 [7]: 6.15 µM
IC50 [8]: 5.05 µM
SMILES: COC(=O)Nc1ccc(Nc2ncnc3cc(OC)c(OC)cc23)cc1Cl

IC50 [7]: 7.6 µM
IC50 [8]: 5.2 µM
SMILES: CCCCOC(=O)Nc1ccc(Nc2ncnc3cc(OC)c(OC)cc23)cc1C

The next lines start with the compound.

SMILES: COc1cc2/c(=N/c3ccc(Br)cc3F)nc[nH]c2cc1OCC1CCN(C)CC1 [VANDETANIB]
inhibition (INH) (PC-3 [1]): 33%
inhibition (INH) (MCF7 [2]): 26%

SMILES: CCOC(=O)Nc1ccc(Nc2ncnc3cc(OCCN4CCCCC4)c(OC)cc23)cc1Cl
IC50 [3]: 9.3 µM
IC50 (PC-3 [4]): > 10 µM
IC50 (HT-29 [5]): 5.2 µM
IC50 (MCF7 [6]): 3 µM
IC50 [7]: > 10 µM
IC50 [8]: 0.8 µM

SMILES: CCCC(=O)Nc1ccc(Nc2ncnc3cc(OC)c(OC)cc23)cc1C
IC50 [7]: > 10 µM
IC50 [8]: 4.3 µM

SMILES: CCCOc1cc2ncnc(Nc3ccc(NC(=O)OCC)c(C)c3)c2cc1OC
IC50 [7]: 3.9 µM

SMILES: CCCCOc1cc2c(Nc3ccc(NC(=O)OCC)c(C)c3)ncnc2cc1OCCN(CC)CC
IC50 [3]: 8.1 µM
IC50 (PC-3 [4]): > 10 µM
IC50 (MCF7 [6]): > 10 µM
IC50 [7]: > 10 µM
IC50 [8]: 5.7 µM

SMILES: COc1cc2ncnc(Nc3ccc(NC(C)=O)c(C)c3)c2cc1OC.Cl
inhibition (INH) (PC-3 [1]): 0%
inhibition (INH) (HT-29 [9]): 0%
inhibition (INH) (MCF7 [2]): 0%
IC50 [7]: > 10 µM

SMILES: CCOC(=O)Nc1ccc(Nc2ncnc3cc(OCCN(CC)CC)c(OC)cc23)cc1C
IC50 [3]: > 10 µM
IC50 (PC-3 [4]): > 10 µM
IC50 (HT-29 [5]): > 10 µM
IC50 (MCF7 [6]): > 10 µM
IC50 [7]: > 10 µM
IC50 [8]: 3.7 µM

SMILES: CCOC(=O)Nc1ccc(Nc2ncnc3cc(OC)c(OCCN(CC)CC)cc23)cc1C
IC50 [3]: > 10 µM
IC50 (PC-3 [4]): > 10 µM
IC50 (HT-29 [5]): > 10 µM
IC50 (MCF7 [6]): > 10 µM
IC50 [7]: > 10 µM
IC50 [8]: 7.2 µM

SMILES: CCCOC(=O)Nc1ccc(Nc2ncnc3cc(OC)c(OC)cc23)cc1
IC50 [7]: 7.05 µM

SMILES: CCOC(=O)Nc1ccc(Nc2ncnc3cc(OCCN4CCCCC4)c(OC)cc23)cc1C
IC50 [3]: 9.3 µM
IC50 (PC-3 [4]): > 10 µM
IC50 (HT-29 [5]): 5.2 µM
IC50 (MCF7 [6]): > 10 µM
IC50 [7]: > 10 µM
IC50 [8]: 0.9 µM

SMILES: CCOC(=O)Nc1ccc(Nc2ncnc3cc(OCCN4CCOCC4)c(OC)cc23)cc1C
IC50 [3]: > 10 µM
IC50 (PC-3 [4]): > 10 µM
IC50 (HT-29 [5]): > 10 µM
IC50 (MCF7 [6]): > 10 µM
IC50 [7]: 8 µM
IC50 [8]: 0.4 µM

SMILES: CCCCC(=O)Nc1ccc(Nc2ncnc3cc(OC)c(OC)cc23)cc1C
IC50 [7]: > 10 µM

SMILES: CCNC(=O)Nc1cc(Cl)c(Nc2ncnc3cc(OC)c(OC)cc23)cc1Cl.Cl
inhibition (INH) (PC-3 [1]): 11%
inhibition (INH) (HT-29 [9]): 16%
inhibition (INH) (MCF7 [2]): 21%
IC50 [7]: > 10 µM

SMILES: CCCCOC(=O)Nc1ccc(Nc2ncnc3cc(OC)c(OC)cc23)cc1
IC50 [7]: 0.8 µM

SMILES: CCCCOc1cc2c(Nc3ccc(NC(=O)OCC)c(Cl)c3)ncnc2cc1OCCN(CC)CC
IC50 [3]: 2.8 µM
IC50 (PC-3 [4]): > 10 µM
IC50 [7]: 9.8 µM
IC50 [8]: 4.8 µM

SMILES: CCC(=O)Nc1ccc(Nc2ncnc3cc(OC)c(OC)cc23)cc1C.Cl
inhibition (INH) (PC-3 [1]): 0%
inhibition (INH) (HT-29 [9]): 0%
inhibition (INH) (MCF7 [2]): 28%
IC50 [7]: > 10 µM

SMILES: CCOC(=O)Nc1ccc(Nc2ncnc3cc(OCCN4CCOCC4)c(OC)cc23)cc1Cl
IC50 [3]: > 10 µM
IC50 (PC-3 [4]): > 10 µM
IC50 (HT-29 [5]): > 10 µM
IC50 (MCF7 [6]): > 10 µM
IC50 [7]: 8.5 µM
IC50 [8]: 0.3 µM

SMILES: CCCCNC(=O)Nc1cc(Cl)c(Nc2ncnc3cc(OC)c(OC)cc23)cc1Cl.Cl
inhibition (INH) (PC-3 [1]): 0%
inhibition (INH) (HT-29 [9]): 3%
inhibition (INH) (MCF7 [2]): 0%
IC50 [7]: > 10 µM
